pIC50: −log10 of the molar value.
Target: T1, cytoplasmic kinase domain of human Flt-3 (GST-Flt-3) (Homo sapiens, UniProt P36888)
T1 construct: expressing the amino acid region amino acids 563-993 of the cytoplasmic kinase domain of human Flt-3; made in house; host or cells: Sf9 insect cells (baculovirus, pFbacG01 donor vector)
T1 sequence (P36888 563-993): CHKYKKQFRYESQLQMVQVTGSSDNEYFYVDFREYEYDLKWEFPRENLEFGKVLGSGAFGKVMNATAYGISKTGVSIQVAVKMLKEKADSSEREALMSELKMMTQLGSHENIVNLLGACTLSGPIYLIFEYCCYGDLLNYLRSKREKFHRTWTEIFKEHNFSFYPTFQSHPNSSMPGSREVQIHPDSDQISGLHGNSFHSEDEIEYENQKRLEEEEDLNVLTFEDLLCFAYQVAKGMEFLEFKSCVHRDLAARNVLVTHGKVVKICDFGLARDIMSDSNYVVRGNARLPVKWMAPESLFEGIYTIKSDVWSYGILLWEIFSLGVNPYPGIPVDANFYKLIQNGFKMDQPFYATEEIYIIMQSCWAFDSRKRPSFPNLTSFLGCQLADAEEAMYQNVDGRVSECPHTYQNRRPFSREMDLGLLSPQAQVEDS
Assay: Inhibition of the protein tyrosine kinase activity of Flt-3 (GST-Flt-3, 33P incorporation into poly(Glu, Tyr))
Assay type: biochemical
Conditions: purified GST-Flt-3, 8.0 μM ATP, poly(Glu, Tyr) 4:1, 20 min at ambient temperature
Excerpt: The baculovirus donor vector pFbacG01 (GIBCO) is used to generate a recombinant baculovirus expressing the amino acid region amino acids 563-993 of the cytoplasmic kinase domain of human Flt-3. The coding sequence for the cytoplasmic domain of Flt-3 is amplified by PCR from human c-DNA libraries (Clontech). The amplified DNA fragments and the pFbacG01 vector are made compatible for ligation by digestion with BamH1 and HindIII. Ligation of these DNA fragments results in the baculovirus donor plasmid Flt-3 (1.1). The production of the viruses, the expression of proteins in Sf9 cells and the purification of the GST-fused proteins are performed as follows: Production of virus: Transfer vector (pFbacG01-Flt-3) containing the Flt-3 kinase domain is transfected into the DH10Bac cell line (GIBCO) and the transfected cells are plated on selective agar plates. Colonies without insertion of the fusion sequence into the viral genome (carried by the bacteria) are blue. Single white colonies are picked and viral DNA (bacmid) is isolated from the bacteria by standard plasmid purification procedures. Sf9 or Sf21 cells (American Type Culture Collection) are then transfected in flasks with the viral DNA using Cellfectin reagent. Protein expression in Sf9 cells: Virus containing media is collected from the transfected cell culture and used for infection to increase its titre. Virus containing media obtained after two rounds of infection is used for large-scale protein expression. For large-scale protein expression 100 cm^2 round tissue culture plates are seeded with 5×10^7 cells/plate and infected with 1 mL of virus-containing media (approx. 5 MOIs). After 3 days the cells are scraped off the plate and centrifuged at 500 rpm for 5 min. Cell pellets from 10-20, 100 cm^2 plates are resuspended in 50 mL of ice-cold lysis buffer (25 mM Tris-HCl, pH 7.5, 2 mM EDTA, 1% NP-40, 1 mM DTT, 1 mM PMSF). The cells are stirred on ice for 15 min and then centrifuged at 5000 rpms for 20 min. Purification of GST-tagged proteins: The centrifuged cell lysate is loaded onto a 2 mL glutathione-sepharose column (Pharmacia) and washed three times with 10 mL of 25 mM Tris-HCl, pH 7.5, 2 mM EDTA, 1 mM DTT, 200 mM NaCl. The GST-tagged protein is then eluted by 10 applications (1 mL each) of 25 mM Tris-HCl, pH 7.5, 10 mM reduced-glutathione, 100 mM NaCl, 1 mM DTT, 10% Glycerol and stored at −70° C. Measurement of enzyme activity: Tyrosine protein kinase assays with purified GST-Flt-3 are carried out in a final volume of 30 μL containing 200-1800 ng of enzyme protein (depending on the specific activity), 20 mM Tris-HCl, pH 7.6, 3 mM MnCl2, 3 mM MgCl2, 1 mM DTT, 10 μM Na3VO4, 3 μg/mL poly(Glu, Tyr) 4:1, 1% DMSO, 8.0 μM ATP and 0.1 μCi [γ^33 P] ATP. The activity is assayed in the presence or absence of inhibitors, by measuring the incorporation of ^33P from [γ^33P] ATP into the poly(Glu, Tyr) substrate. The assay (30 μL) is carried out in 96-well plates at ambient temperature for 20 min and terminated by the addition of 20 μL of 125 mM EDTA. Subsequently, 40 μL of the reaction mixture is transferred onto Immobilon-PVDF membrane (Millipore, Bedford, Mass., USA) previously soaked for 5 min with methanol, rinsed with water, then soaked for 5 min with 0.5% H3PO4 and mounted on vacuum manifold with disconnected vacuum source. After spotting all samples, vacuum is connected and each well rinsed with 200 μL 0.5% H3PO4. Membranes are removed and washed 4× on a shaker with 1.0% H3PO4, once with ethanol. Membranes are counted after drying at ambient temperature, mounting in Packard TopCount 96-well frame, and addition of 10 μL/well of Microscint™ (Packard). IC50 values are calculated by linear regression analysis of the percentage inhibition of each compound in duplicate, at four concentrations (usually 0.01, 0.1, 1 and 10 μM). One unit of protein kinase activity is defined as 1 nmole of ^33P transferred from [γ^33P] ATP to the substrate protein per minute per mg of protein at 37° C. […]

| pIC50 | SMILES |
| --- | --- |
| 7.46 | Oc1ccc(-c2cnc(Nc3ccc(OCCN4CCCC4)cc3)s2)cc1 [Example 7, 4-{2-[4-(2-Pyrrolidin-1-yl-ethoxy)-phenylamino]-thiazol-5-yl}-phenol] |
| 7.62 | COc1ccc(-c2cnc(Nc3ccc(N4CCN(C)CC4)cc3)s2)cc1 [Example 5, [5-(4-Methoxy-phenyl)-thiazol-2-yl]-[4-(4-methyl-piperazin-1-yl)-phenyl]-amine] |
| 7.51 | CCN(CC)CCOc1ccc(Nc2cc(-c3ccsc3)[nH]n2)cc1 [Example 37, [4-(2-Diethylamino-ethoxy)-phenyl]-(5-thiophen-3-yl-1H-pyrazol-3-yl)-amine] |
| 7.39 | c1ccc(-c2cnc(Nc3ccc(OCCN4CCCC4)cc3)s2)cc1 [Example 1, (5-Phenyl-thiazol-2-yl)-[4-(2-pyrrolidin-1-yl-ethoxy)-phenyl]-amine] |
| 7.09 | c1cc(-c2cc(Nc3ccc(OCCN4CCCC4)cc3)n[nH]2)cs1 [Example 34, [4-(2-Pyrrolidin-1-yl-ethoxy)-phenyl]-(5-thiophen-3-yl-1H-pyrazol-3-yl)-amine] |
| 7.47 | Oc1ccc(Nc2ncc(-c3ccsc3)s2)cc1 [Example 12, 4-(5-Thiophen-3-yl-thiazol-2-yl-amino)-phenol] |
| 7.66 | c1cc(-c2cnc(Nc3ccc(OCCN4CCCCC4)cc3)s2)cs1 [Example 16, [4-(2-Piperidin-1-yl-ethoxy)-phenyl]-(5-thiophen-3-yl-thiazol-2-yl)-amine] |
